Results published in paper PMC8963254, “Effects of Lysine N-ζ-Methylation in Ultrashort Tetrabasic Lipopeptides (UTBLPs) on the Potentiation of Rifampicin, Novobiocin, and Niclosamide in Gram-Negative Bacteria” (Antibiotics, 2022).
Converted amounts (≈) assume the structure as drawn. Read-outs that look alike come from different tables or passages of the source. Residues, ends and D or L forms follow the SMILES beside them. *: point of attachment. Octanoyl = CCCCCCCC(=O)*

Key:
P. aeruginosa PAO1 [1] = format: cell-based, Pseudomonas aeruginosa; conditions: PAO1, 18 h
Outline: (§1)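 Turbidity at 590 nm defined growth, from which the MIC was taken. Cultures at a final density of 5 × 10^5 CFU/mL were exposed to a range of compound levels at 37 °C for 18 h in a CLSI-based microdilution format.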

A. baumannii ATCC 17978 = format: cell-based, Acinetobacter baumannii; conditions: ATCC 17978, 18 h
Outline: as §1

E. coli ATCC 25922 = format: cell-based, Escherichia coli; conditions: ATCC 25922, 18 h
Outline: as §1

MRSA ATCC 33592 = format: cell-based, Staphylococcus aureus; conditions: ATCC 33592, 18 h
Outline: as §1

S. aureus ATCC 29213 = format: cell-based, Staphylococcus aureus; conditions: ATCC 29213, 18 h
Outline: as §1

E. faecalis ATCC 29212 [2] = format: cell-based, Enterococcus faecalis; conditions: ATCC 29212, 18 h
Outline: as §1

[3] = system: P. aeruginosa PA259-96196; test: microbe, parasite or virus in culture; format: cell-based, Pseudomonas aeruginosa; conditions: PA259-96196, 18 h
Outline: as §1

[4] = system: P. aeruginosa PA262-101856; test: microbe, parasite or virus in culture; format: cell-based, Pseudomonas aeruginosa; conditions: PA262-101856, 18 h
Outline: as §1

A. baumannii AB027 = test: microbe, parasite or virus in culture; format: cell-based, Acinetobacter baumannii; conditions: AB027, 18 h
Outline: as §1

A. baumannii AB92247 = test: microbe, parasite or virus in culture; format: cell-based, Acinetobacter baumannii; conditions: AB92247, 18 h
Outline: as §1

E. coli 94393 = test: microbe, parasite or virus in culture; format: cell-based, Escherichia coli; conditions: 94393, 18 h
Outline: as §1

E. coli 94474 [5] = test: microbe, parasite or virus in culture; format: cell-based, Escherichia coli; conditions: 94474, 18 h
Outline: as §1

MRSE 61589 [6] = format: cell-based, Staphylococcus epidermidis; conditions: 61589, 18 h
Outline: as §1

MSSE 81388 [7] = format: cell-based, Staphylococcus epidermidis; conditions: 18 h
Outline: as §1

[8] = system: P. aeruginosa PA259-96196; format: cell-based, Pseudomonas aeruginosa; conditions: for MICUTBLP: UTBLP alone
Outline: (§2)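 Checkerboard synergy assay: antibiotic and OMP combined at varying concentrations with 5 × 10^5 CFU/mL inoculum (final), 37 °C, 18 h; growth read as turbidity at 590 nm. FICI = sum of FICs (MIC in combination / MIC alone); ≤0.5 synergistic, 0.5–4 additive, >4 antagonistic.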

[9] = system: P. aeruginosa PA262-101856; format: cell-based, Pseudomonas aeruginosa; conditions: for MICUTBLP: UTBLP alone
Outline: as §2

P. aeruginosa PAO1 [10] = format: cell-based, Pseudomonas aeruginosa; conditions: for MICUTBLP: UTBLP alone
Outline: as §2

E. coli 94474 [11] = format: cell-based, Escherichia coli; conditions: for MICUTBLP: UTBLP alone
Outline: as §2

E. cloacae 118564 = format: cell-based, Enterobacter cloacae; conditions: for MICUTBLP: UTBLP alone
Outline: as §2

MRSE 61589 [12] = format: cell-based, Staphylococcus epidermidis
Outline: as §2

MSSE 81388 [13] = format: cell-based, Staphylococcus epidermidis
Outline: as §2

E. faecalis ATCC 29212 [14] = format: cell-based, Enterococcus faecalis
Outline: as §2

[15] = UTBLP in combination with novobiocin
[16] = UTBLP in combination with rifampicin
[17] = novobiocin in combination with the UTBLP
[18] = rifampicin in combination with the UTBLP
[19] = UTBLP in combination with chloramphenicol
[20] = chloramphenicol in combination with the UTBLP
[21] = UTBLP alone, plate with chloramphenicol

MIC (P. aeruginosa PAO1 [1]): >128 µg/mL | MIC (A. baumannii ATCC 17978): 64 µg/mL (≈ 70.3 µM) | MIC (E. coli ATCC 25922): 64 µg/mL (≈ 70.3 µM) | MIC (MRSA ATCC 33592): 64 µg/mL (≈ 70.3 µM) | MIC (S. aureus ATCC 29213): 64 µg/mL (≈ 70.3 µM) | MIC (E. faecalis ATCC 29212 [2]): 32 µg/mL (≈ 35.2 µM) | MIC [3]: 128 µg/mL (≈ 141 µM) | MIC [4]: > 128 µg/mL | MIC (A. baumannii AB027): 128 µg/mL (≈ 141 µM) | MIC (A. baumannii AB92247): 32 µg/mL (≈ 35.2 µM) | MIC (E. coli 94393): 32 µg/mL (≈ 35.2 µM) | MIC (E. coli 94474 [5]): 128 µg/mL (≈ 141 µM) | MIC (MRSE 61589 [6]): 8 µg/mL (≈ 8.79 µM) | MIC (MSSE 81388 [7]): 16 µg/mL (≈ 17.6 µM) | MICUTBLP ([8]; plate with novobiocin): 128 µg/mL | MICUTBLP ([8]; plate with rifampicin): > 128 µg/mL | MICUTBLP [MICcombo] [8, 15]: 4 µg/mL | MICUTBLP [MICcombo] [8, 16]: 8 µg/mL | MICantibiotic [MICcombo] [8, 17]: 16 µg/mL | MICantibiotic [MICcombo] [8, 18]: 0.5 µg/mL | MICUTBLP ([9]; plate with novobiocin): > 128 µg/mL | MICUTBLP ([9]; plate with rifampicin): > 128 µg/mL | MICUTBLP [MICcombo] [9, 15]: 16 µg/mL | MICUTBLP [MICcombo] [9, 16]: 16 µg/mL | MICantibiotic [MICcombo] [9, 17]: 16 µg/mL | MICantibiotic [MICcombo] [9, 18]: 32 µg/mL | MICUTBLP (P. aeruginosa PAO1 [10]; plate with chloramphenicol): > 128 µg/mL | MICUTBLP (P. aeruginosa PAO1 [10]; plate with niclosamide): > 128 µg/mL | MICUTBLP (P. aeruginosa PAO1 [10]; plate with novobiocin): > 128 µg/mL | MICUTBLP (P. aeruginosa PAO1 [10]; plate with rifampicin): > 128 µg/mL | MICUTBLP [MICcombo] (P. aeruginosa PAO1 [10]; [19]): 2 µg/mL | MICUTBLP [MICcombo] (P. aeruginosa PAO1 [10]; UTBLP in combination with niclosamide): 4 µg/mL | MICUTBLP [MICcombo] (P. aeruginosa PAO1 [10]; [15]): 16 µg/mL | MICUTBLP [MICcombo] (P. aeruginosa PAO1 [10]; [16]): 16 µg/mL | MICantibiotic [MICcombo] (P. aeruginosa PAO1 [10]; [20]): 2 µg/mL | MICantibiotic [MICcombo] (P. aeruginosa PAO1 [10]; niclosamide in combination with the UTBLP): 4 µg/mL | MICantibiotic [MICcombo] (P. aeruginosa PAO1 [10]; [17]): 8 µg/mL | MICantibiotic [MICcombo] (P. aeruginosa PAO1 [10]; [18]): 0.5 µg/mL | MICUTBLP (E. coli 94474 [11]; plate with novobiocin): 128 µg/mL | MICUTBLP (E. coli 94474 [11]; plate with rifampicin): 128 µg/mL | MICUTBLP [MICcombo] (E. coli 94474 [11]; [15]): 4 µg/mL | MICUTBLP [MICcombo] (E. coli 94474 [11]; [16]): 2 µg/mL | MICantibiotic [MICcombo] (E. coli 94474 [11]; [17]): 1 µg/mL | MICantibiotic [MICcombo] (E. coli 94474 [11]; [18]): 0.25 µg/mL | MICUTBLP (E. cloacae 118564; plate with novobiocin): > 128 µg/mL | MICUTBLP (E. cloacae 118564; plate with rifampicin): > 128 µg/mL | MICUTBLP [MICcombo] (E. cloacae 118564; [15]): 16 µg/mL | MICUTBLP [MICcombo] (E. cloacae 118564; [16]): 8 µg/mL | MICantibiotic [MICcombo] (E. cloacae 118564; [17]): 0.5 µg/mL | MICantibiotic [MICcombo] (E. cloacae 118564; [18]): 0.5 µg/mL | MICUTBLP (MRSE 61589 [12]; [21]): 8 µg/mL | MICUTBLP [MICcombo] (MRSE 61589 [12]; [19]): 4 µg/mL | MICchloramphenicol [MICcombo] (MRSE 61589 [12]; [20]): 4 µg/mL | MICUTBLP (MSSE 81388 [13]; [21]): 16 µg/mL | MICUTBLP [MICcombo] (MSSE 81388 [13]; [19]): 8 µg/mL | MICchloramphenicol [MICcombo] (MSSE 81388 [13]; [20]): 0.25 µg/mL | MICUTBLP (E. faecalis ATCC 29212 [14]; [21]): 32 µg/mL | MICUTBLP [MICcombo] (E. faecalis ATCC 29212 [14]; [19]): 4 µg/mL | MICchloramphenicol [MICcombo] (E. faecalis ATCC 29212 [14]; [20]): 4 µg/mL
SMILES: CCCCCCCC(=O)NCCCC[C@H](NC(=O)CCCCCCC)C(=O)N[C@@H](CCCCN)C(=O)N[C@@H](CCCCN)C(=O)N[C@@H](CCCCN)C(=O)N[C@@H](CCCCN)C(N)=O [UTBLP 5] (Octanoyl-K(Octanoyl)KKKK-NH2)
Interpretation ([8]; UTBLP + novobiocin): Synergy (FICI ≤ 0.5 is synergistic) | Interpretation ([8]; UTBLP + rifampicin): Synergy (FICI ≤ 0.5 is synergistic) | Interpretation ([9]; UTBLP + novobiocin): Synergy (FICI ≤ 0.5 is synergistic) | Interpretation ([9]; UTBLP + rifampicin): Synergy (FICI ≤ 0.5 is synergistic) | Interpretation (P. aeruginosa PAO1 [10]; UTBLP + chloramphenicol): Synergy (FICI ≤ 0.5 is synergistic) | Interpretation (P. aeruginosa PAO1 [10]; UTBLP + niclosamide): Synergy (FICI ≤ 0.5 is synergistic) | Interpretation (P. aeruginosa PAO1 [10]; UTBLP + novobiocin): Synergy (FICI ≤ 0.5 is synergistic) | Interpretation (P. aeruginosa PAO1 [10]; UTBLP + rifampicin): Synergy (FICI ≤ 0.5 is synergistic) | Interpretation (E. coli 94474 [11]; UTBLP + novobiocin): Synergy (FICI ≤ 0.5 is synergistic) | Interpretation (E. coli 94474 [11]; UTBLP + rifampicin): Synergy (FICI ≤ 0.5 is synergistic) | Interpretation (E. cloacae 118564; UTBLP + novobiocin): Synergy (FICI ≤ 0.5 is synergistic) | Interpretation (E. cloacae 118564; UTBLP + rifampicin): Synergy (FICI ≤ 0.5 is synergistic) | Interpretation (MRSE 61589 [12]; UTBLP + chloramphenicol): Additive (0.5 < x ≤ 4 is additive) | Interpretation (MSSE 81388 [13]; UTBLP + chloramphenicol): Additive (0.5 < x ≤ 4 is additive) | Interpretation (E. faecalis ATCC 29212 [14]; UTBLP + chloramphenicol): Additive (0.5 < x ≤ 4 is additive)
